For the assay, the target named is T1, COX-2 (cyclooxygenase-2) (Homo sapiens, UniProt P35354).
T1 construct: gene PTGS2
T1 sequence (P35354 18-604): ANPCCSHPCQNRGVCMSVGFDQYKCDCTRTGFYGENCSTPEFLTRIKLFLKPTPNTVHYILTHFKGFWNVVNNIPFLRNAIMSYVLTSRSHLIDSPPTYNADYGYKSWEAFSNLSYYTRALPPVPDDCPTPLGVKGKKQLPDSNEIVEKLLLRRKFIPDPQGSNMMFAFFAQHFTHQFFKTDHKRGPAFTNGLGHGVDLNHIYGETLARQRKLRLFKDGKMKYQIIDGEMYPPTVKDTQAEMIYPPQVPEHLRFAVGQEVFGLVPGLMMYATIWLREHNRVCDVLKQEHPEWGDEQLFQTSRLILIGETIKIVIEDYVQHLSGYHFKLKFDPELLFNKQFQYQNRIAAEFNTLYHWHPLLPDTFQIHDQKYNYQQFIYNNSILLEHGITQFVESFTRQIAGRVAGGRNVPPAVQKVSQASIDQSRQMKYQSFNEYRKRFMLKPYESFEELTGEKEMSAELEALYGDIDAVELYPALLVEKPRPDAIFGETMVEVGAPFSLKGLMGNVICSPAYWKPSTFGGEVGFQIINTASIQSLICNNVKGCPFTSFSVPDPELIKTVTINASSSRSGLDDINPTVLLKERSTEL
Briefly: biochemical.

As to `CC(=O)O[C@H]1[C@@H](O)C=C2C[C@@]3(O)OC[C@@]4(C)O[C@]43C[C@]2(C)[C@H]1C` [compound 2, fureremophilane B], the 50% inhibitory concentration (IC50) – broadly, the point on the concentration scale where inhibition reaches its midpoint – was determined as 123 µM.

In turn, `CC(=O)O[C@H]1C=C2C[C@@]3(O)OC[C@@]4(C)O[C@]43C[C@]2(C)[C@@H](C)[C@H]1O` [compound 3, fureremophilane C] yielded a 50% inhibitory concentration (IC50) of 93.4 µM.

The values are drawn from article PMC11677535, “Eremophilane- and Acorane-Type Sesquiterpenes from the Deep-Sea Cold-Seep-Derived Fungus Furcasterigmium furcatum CS-280 Cultured in the Presence of Autoclaved Pseudomonas aeruginosa QDIO-4” (Marine Drugs, 2024).
